These results are taken from ChEMBL document CHEMBL6127153, “Hybrids of Membrane-Translocating Antimicrobial Peptides Show Enhanced Activity through Membrane Permeabilization” (ACS Med Chem Lett, 2024).

One data set concerns Escherichia coli. As to the kind of experiment: Antibacterial activity against Escherichia coli Top10 assessed as inhibition of bacterial growth at 100 uM incubated for 3 hrs by radial diffusion assay. The class given is functional, organism-based.
Another data set concerns Bacillus subtilis. As to the kind of experiment: Antibacterial activity against Bacillus subtilis ATCC6051 assessed as inhibition of bacterial growth at 100 uM incubated for 3 hrs by radial diffusion assay. It counts as functional, organism-based.
A further data set has as its system HEK293. Nature of the data set: Cytotoxicity against HEK293 cells assessed as effect on cell metabolic activity at 18.2 uM incubated for overnight by MTS assay. The class given is toxicity, cell-based. The following applies: human, hek293, 18.2 µM. (In general: Tetrazolium dyes change colour on reduction, which living cells bring about.)
The test system of data set [1] is Cell membrane. As to the kind of experiment: Induction of membrane translocation in Escherichia coli spheroplasts assessed as increase in fluorescence intensity using FITC-labeled compound by confocal microscopy. The class given is subcellular.
Data set [2] relates to Cell membrane. Nature of the data set: Induction of membrane permeabilization in Escherichia coli assessed as increase in fluorescence intensity at 2 uM by PI staining based fluorescence spectrophotometric analysis. The class given is subcellular.

SMILES strings stand for the structures. Active and inactive are the calls of the source. No cut-off for these calls is given here.

Take `CC[C@H](C)[C@H](NC(=O)[C@H](CCCNC(=N)N)NC(=O)[C@@H](NC(=O)[C@H](CCCCN)NC(=O)[C@H](CCCCN)NC(=O)[C@H](CC(N)=O)NC(=O)[C@H](CC(=O)O)NC(=O)[C@H](CCCNC(=N)N)NC(=O)[C@H](C)N)[C@@H](C)O)C(=O)N[C@@H](Cc1c[nH]c2ccccc12)C(=O)N1CCC[C@H]1C(=O)N[C@@H](CCCNC(=N)N)C(=O)N[C@@H](Cc1cnc[nH]1)C(=O)N[C@@H](CC(C)C)C(=O)N[C@@H](CCC(N)=O)C(=O)N[C@@H](CC(C)C)C(=O)N[C@@H](C)C(=O)N[C@H](C(=O)N[C@@H](CCCNC(=N)N)C(=O)N[C@@H](CC(N)=O)C(=O)N[C@@H](C)C(=O)N[C@H](C(=O)N[C@@H](CCCNC(=N)N)C(=O)N[C@@H](CO)C(=O)N[C@@H](CO)C(=O)N[C@@H](CCCNC(=N)N)C(=O)N[C@@H](C)C(=O)NCC(=O)N[C@@H](CC(C)C)C(=O)N[C@@H](CCC(N)=O)C(=O)N[C@@H](Cc1c[nH]c2ccccc12)C(=O)N1CCC[C@H]1C(=O)N[C@H](C(=O)NCC(=O)N[C@@H](CCCNC(=N)N)C(=O)N[C@H](C(=O)N[C@@H](Cc1cnc[nH]1)C(=O)N[C@@H](CCCNC(=N)N)C(=O)N[C@@H](CC(C)C)C(=O)N[C@@H](CC(C)C)C(=O)N[C@@H](CCCNC(=N)N)C(=O)N[C@@H](CCCCN)C(=O)O)C(C)C)C(C)C)[C@@H](C)O)C(C)C`: the result in the data set with Escherichia coli, in the data set with Bacillus subtilis, in the data set on Cell membrane [1] and in the data set with Cell membrane [2] was Active. For the same molecule, the Activity entry with HEK293 was “Non-Toxic”.
With `CC[C@H](C)[C@H](NC(=O)[C@H](CCCNC(=N)N)NC(=O)[C@@H](NC(=O)[C@H](CCCCN)NC(=O)[C@H](CCCCN)NC(=O)[C@H](CC(N)=O)NC(=O)[C@H](CC(=O)O)NC(=O)[C@H](CCCNC(=N)N)NC(=O)[C@H](C)N)[C@@H](C)O)C(=O)N[C@@H](Cc1c[nH]c2ccccc12)C(=O)N1CCC[C@H]1C(=O)N[C@@H](CCCNC(=N)N)C(=O)N[C@@H](Cc1cnc[nH]1)C(=O)N[C@@H](CC(C)C)C(=O)N[C@@H](CCC(N)=O)C(=O)N[C@@H](CC(C)C)C(=O)N[C@@H](C)C(=O)N[C@H](C(=O)N[C@@H](CCCNC(=N)N)C(=O)N[C@@H](CC(N)=O)C(=O)N1CCC[C@H]1C(=O)N[C@H](C(=O)N[C@@H](CCCNC(=N)N)C(=O)N[C@@H](CO)C(=O)N[C@@H](CO)C(=O)N[C@@H](CCCNC(=N)N)C(=O)N[C@@H](C)C(=O)NCC(=O)N[C@@H](CC(C)C)C(=O)N[C@@H](CCC(N)=O)C(=O)N[C@@H](Cc1c[nH]c2ccccc12)C(=O)N1CCC[C@H]1C(=O)N[C@H](C(=O)NCC(=O)N[C@@H](CCCNC(=N)N)C(=O)N[C@H](C(=O)N[C@@H](Cc1cnc[nH]1)C(=O)N[C@@H](CCCNC(=N)N)C(=O)N[C@@H](CC(C)C)C(=O)N[C@@H](CC(C)C)C(=O)N[C@@H](CCCNC(=N)N)C(=O)N[C@@H](CCCCN)C(=O)O)C(C)C)C(C)C)[C@@H](C)O)C(C)C`, the result in the data set on Escherichia coli, in the data set with Bacillus subtilis, with Cell membrane [1] and with Cell membrane [2] was Active. Moreover, the Activity entry in the data set with HEK293 was “Non-Toxic”.
For the molecule `CC[C@H](C)[C@H](NC(=O)[C@H](CCCNC(=N)N)NC(=O)[C@@H](NC(=O)[C@H](CCCCN)NC(=O)[C@H](CCCCN)NC(=O)[C@H](CC(N)=O)NC(=O)[C@H](CC(=O)O)NC(=O)[C@H](CCCNC(=N)N)NC(=O)[C@H](C)NC(=O)[C@H](C)NC(=O)[C@H](CCCCN)NC(=O)[C@H](CCCNC(=N)N)NC(=O)[C@H](CC(C)C)NC(=O)[C@H](CC(C)C)NC(=O)[C@H](CCCNC(=N)N)NC(=O)[C@H](Cc1cnc[nH]1)NC(=O)[C@@H](NC(=O)[C@H](CCCNC(=N)N)NC(=O)CNC(=O)[C@@H](NC(=O)[C@@H]1CCCN1C(=O)[C@H](Cc1c[nH]c2ccccc12)NC(=O)[C@H](CCC(N)=O)NC(=O)[C@H](CC(C)C)NC(=O)CNC(=O)[C@H](C)NC(=O)[C@H](CCCNC(=N)N)NC(=O)[C@H](CO)NC(=O)[C@H](CO)NC(=O)[C@H](CCCNC(=N)N)NC(=O)[C@@H](N)[C@@H](C)O)C(C)C)C(C)C)[C@@H](C)O)C(=O)N[C@@H](Cc1c[nH]c2ccccc12)C(=O)N1CCC[C@H]1C(=O)N[C@@H](CCCNC(=N)N)C(=O)N[C@@H](Cc1cnc[nH]1)C(=O)N[C@@H](CC(C)C)C(=O)N[C@@H](CCC(N)=O)C(=O)N[C@@H](CC(C)C)C(=O)N[C@@H](C)C(=O)N[C@H](C(=O)N[C@@H](CCCNC(=N)N)C(=O)N[C@@H](CC(N)=O)C(=O)O)C(C)C`, the result in the data set on Escherichia coli, with Bacillus subtilis, with Cell membrane [1] and in the data set on Cell membrane [2] was Active. Further, the Activity entry in the data set on HEK293 is “Non-Toxic”.
As for `CC[C@H](C)[C@H](NC(=O)[C@H](CCCNC(=N)N)NC(=O)[C@@H](NC(=O)[C@H](CCCCN)NC(=O)[C@H](CCCCN)NC(=O)[C@H](CC(N)=O)NC(=O)[C@H](CC(=O)O)NC(=O)[C@H](CCCNC(=N)N)NC(=O)[C@H](C)NC(=O)[C@@H]1CCCN1C(=O)[C@H](CCCCN)NC(=O)[C@H](CCCNC(=N)N)NC(=O)[C@H](CC(C)C)NC(=O)[C@H](CC(C)C)NC(=O)[C@H](CCCNC(=N)N)NC(=O)[C@H](Cc1cnc[nH]1)NC(=O)[C@@H](NC(=O)[C@H](CCCNC(=N)N)NC(=O)CNC(=O)[C@@H](NC(=O)[C@@H]1CCCN1C(=O)[C@H](Cc1c[nH]c2ccccc12)NC(=O)[C@H](CCC(N)=O)NC(=O)[C@H](CC(C)C)NC(=O)CNC(=O)[C@H](C)NC(=O)[C@H](CCCNC(=N)N)NC(=O)[C@H](CO)NC(=O)[C@H](CO)NC(=O)[C@H](CCCNC(=N)N)NC(=O)[C@@H](N)[C@@H](C)O)C(C)C)C(C)C)[C@@H](C)O)C(=O)N[C@@H](Cc1c[nH]c2ccccc12)C(=O)N1CCC[C@H]1C(=O)N[C@@H](CCCNC(=N)N)C(=O)N[C@@H](Cc1cnc[nH]1)C(=O)N[C@@H](CC(C)C)C(=O)N[C@@H](CCC(N)=O)C(=O)N[C@@H](CC(C)C)C(=O)N[C@@H](C)C(=O)N[C@H](C(=O)N[C@@H](CCCNC(=N)N)C(=O)N[C@@H](CC(N)=O)C(=O)O)C(C)C`, the outcome in the data set on Escherichia coli, in the data set with Bacillus subtilis and in the data set with Cell membrane [2] was Active. For the same molecule, in the data set on HEK293, the Activity result is “Non-Toxic”. For the same molecule, the result in the data set on Cell membrane [1] was inactive.
Take `CC[C@H](C)[C@H](NC(=O)[C@H](CCCNC(=N)N)NC(=O)[C@@H](NC(=O)[C@H](CCCCN)NC(=O)[C@H](CCCCN)NC(=O)[C@H](CC(N)=O)NC(=O)[C@H](CC(=O)O)NC(=O)[C@H](CCCNC(=N)N)NC(=O)[C@H](C)N)[C@@H](C)O)C(=O)N[C@@H](Cc1c[nH]c2ccccc12)C(=O)N1CCC[C@H]1C(=O)N[C@@H](CCCNC(=N)N)C(=O)N[C@@H](Cc1cnc[nH]1)C(=O)N[C@@H](CC(C)C)C(=O)N[C@@H](CCC(N)=O)C(=O)N[C@@H](CC(C)C)C(=O)N[C@@H](C)C(=O)N[C@H](C(=O)N[C@@H](CCCNC(=N)N)C(=O)N[C@@H](CC(N)=O)C(=O)N[C@H](C(=O)N[C@@H](CCCNC(=N)N)C(=O)N[C@@H](CO)C(=O)N[C@@H](CO)C(=O)N[C@@H](CCCNC(=N)N)C(=O)N[C@@H](C)C(=O)NCC(=O)N[C@@H](CC(C)C)C(=O)N[C@@H](CCC(N)=O)C(=O)N[C@@H](Cc1c[nH]c2ccccc12)C(=O)N1CCC[C@H]1C(=O)N[C@H](C(=O)NCC(=O)N[C@@H](CCCNC(=N)N)C(=O)N[C@H](C(=O)N[C@@H](Cc1cnc[nH]1)C(=O)N[C@@H](CCCNC(=N)N)C(=O)N[C@@H](CC(C)C)C(=O)N[C@@H](CC(C)C)C(=O)N[C@@H](CCCNC(=N)N)C(=O)N[C@@H](CCCCN)C(=O)O)C(C)C)C(C)C)[C@@H](C)O)C(C)C`: the outcome in the data set with Escherichia coli, in the data set on Bacillus subtilis, in the data set on Cell membrane [1] and with Cell membrane [2] was Active. In addition, in the data set on HEK293, the Activity result is “Non-Toxic”.
As for `CC[C@H](C)[C@H](NC(=O)[C@H](CCCNC(=N)N)NC(=O)[C@@H](NC(=O)[C@H](CCCCN)NC(=O)[C@H](CCCCN)NC(=O)[C@H](CC(N)=O)NC(=O)[C@H](CC(=O)O)NC(=O)[C@H](CCCNC(=N)N)NC(=O)[C@H](C)NC(=O)[C@H](CCCCN)NC(=O)[C@H](CCCNC(=N)N)NC(=O)[C@H](CC(C)C)NC(=O)[C@H](CC(C)C)NC(=O)[C@H](CCCNC(=N)N)NC(=O)[C@H](Cc1cnc[nH]1)NC(=O)[C@@H](NC(=O)[C@H](CCCNC(=N)N)NC(=O)CNC(=O)[C@@H](NC(=O)[C@@H]1CCCN1C(=O)[C@H](Cc1c[nH]c2ccccc12)NC(=O)[C@H](CCC(N)=O)NC(=O)[C@H](CC(C)C)NC(=O)CNC(=O)[C@H](C)NC(=O)[C@H](CCCNC(=N)N)NC(=O)[C@H](CO)NC(=O)[C@H](CO)NC(=O)[C@H](CCCNC(=N)N)NC(=O)[C@@H](N)[C@@H](C)O)C(C)C)C(C)C)[C@@H](C)O)C(=O)N[C@@H](Cc1c[nH]c2ccccc12)C(=O)N1CCC[C@H]1C(=O)N[C@@H](CCCNC(=N)N)C(=O)N[C@@H](Cc1cnc[nH]1)C(=O)N[C@@H](CC(C)C)C(=O)N[C@@H](CCC(N)=O)C(=O)N[C@@H](CC(C)C)C(=O)N[C@@H](C)C(=O)N[C@H](C(=O)N[C@@H](CCCNC(=N)N)C(=O)N[C@@H](CC(N)=O)C(=O)O)C(C)C`, the outcome in the data set on Escherichia coli, with Bacillus subtilis, in the data set on Cell membrane [1] and with Cell membrane [2] was Active. In addition, the Activity entry in the data set with HEK293 is reported as “Non-Toxic”.
